Consider ten compounds from patent publication US8268827B2, “Pyridazinone derivatives as PARP inhibitors” (Istituto di Ricerche di Biologia Molecolare P. Angeletti …, priority 2007, dated 2012).

One assay addresses T1, PARP-1 (Homo sapiens, UniProt P09874).
T1 construct: purchased Trevigen 4668-500-01
The assay can be described thus: PARP-1 SPA assay. It counts as biochemical. As to the method:
Assay buffer: 100 mM Tris pH 8, 4 mM MgCl2, 4 mM Spermine, 200 mM KCl, 0.04% Nonidet P-40.
Nicotinamide-adenine dinucleotide (NAD)/DNA Mix: [^3H-NAD] (250 uCi/ml, 0.4 ul, Perkin-Elmer NET-443H), NAD (1.5 mM, 0.05 ul, SIGMA N-1511), Biotinylated-NAD (250 uM, 0.03 ul, Trevigen 4670-500-01), Activated calf thymus (1 mg/ml, 0.05 ul, Amersham Biosciences 27-4575), H2O (to 10 ul).
Developing Mix: Streptavidin SPA beads (5 mg/ml, Amersham Biosciences RPNQ 0007) dissolved in 500 mM EDTA.
The reaction is performed in 96-well microplate with a final volume of 50 uL/well. Add 5 ul 5% DMSO/compound solution, add enzyme mix (35 ul), start the reaction by adding NAD/DNA mix (10 uL) and incubate for 2 hrs at RT. Stop the reaction by adding developing mix (25 ul) and incubate 15 min at RT. Measure using a Packard TOP COUNT instrument.

The test system of assay [1] is BRCA-1 silenced HeLa cells (HeLa shBRCA1-GFP). The assay can be described thus: Proliferation assay in BRCA-1 silenced HeLa cells. The class given is cell-based. The conditions noted are these: Homo sapiens; BRCA1 silenced HeLa cells, 168 hours; read-out: CC50 in the BRCA1 silenced HeLa cells. Summed up: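 HeLa cells with lentiviral shRNA BRCA1 knockdown (>80%), compared with control-vector HeLa, seeded at 300 cells/well. Compound exposure lasted 168 h at 37° C. Viability was read as resazurin-to-resorufin fluorescence (ex 550/em 590 nm).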

Molecules are shown by their SMILES. Structures can show the parent of a compound that is named as a salt. Bounds are passed on as bounds.

T1 sequence (P09874 whole entry): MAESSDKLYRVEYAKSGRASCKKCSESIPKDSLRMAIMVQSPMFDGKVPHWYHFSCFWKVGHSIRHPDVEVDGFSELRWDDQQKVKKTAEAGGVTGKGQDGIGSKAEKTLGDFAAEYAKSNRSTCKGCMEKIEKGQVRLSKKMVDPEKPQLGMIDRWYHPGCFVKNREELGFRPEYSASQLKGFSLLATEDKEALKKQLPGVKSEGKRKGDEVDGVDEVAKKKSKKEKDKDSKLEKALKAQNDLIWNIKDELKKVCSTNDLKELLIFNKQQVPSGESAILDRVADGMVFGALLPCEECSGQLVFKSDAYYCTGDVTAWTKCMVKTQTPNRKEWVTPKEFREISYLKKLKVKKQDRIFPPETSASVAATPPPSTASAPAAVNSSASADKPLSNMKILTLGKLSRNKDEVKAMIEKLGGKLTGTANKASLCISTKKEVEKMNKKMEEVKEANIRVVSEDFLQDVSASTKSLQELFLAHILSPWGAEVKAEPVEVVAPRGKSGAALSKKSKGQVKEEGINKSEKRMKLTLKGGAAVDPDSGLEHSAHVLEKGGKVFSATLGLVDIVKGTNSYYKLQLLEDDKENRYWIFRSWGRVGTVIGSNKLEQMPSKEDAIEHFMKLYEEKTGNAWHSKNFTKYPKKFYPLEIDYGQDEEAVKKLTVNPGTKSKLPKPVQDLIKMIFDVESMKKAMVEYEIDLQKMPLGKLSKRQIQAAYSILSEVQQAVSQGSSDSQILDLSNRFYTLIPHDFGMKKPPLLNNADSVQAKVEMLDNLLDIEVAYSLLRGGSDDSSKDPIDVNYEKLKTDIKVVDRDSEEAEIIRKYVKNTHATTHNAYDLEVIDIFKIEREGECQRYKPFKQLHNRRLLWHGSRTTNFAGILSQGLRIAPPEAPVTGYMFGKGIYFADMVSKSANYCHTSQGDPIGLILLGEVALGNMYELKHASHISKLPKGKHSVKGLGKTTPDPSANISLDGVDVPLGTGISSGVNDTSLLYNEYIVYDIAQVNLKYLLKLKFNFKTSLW

What is called IC50 is the point on the concentration scale where inhibition reaches its midpoint. Read a low IC50 as greater potency in that assay. As a reminder, the CC50 is the concentration that lowers cell viability or growth by half. In the case of `Cc1c(Cc2ccc(F)c(C(=O)N3CCN(c4ccccn4)C(=O)C3)c2)n[nH]c(=O)c1C` [Example 31, 3-{4-Fluoro-3-[(3-oxo-4-pyridin-2-ylpiperazin-1-yl)carbonyl]benzyl}-4,5-dimethyl-6-oxo-1,6-dihydropyridazin-1-ium trifluoroacetate], the IC50 at PARP-1 is 5 to 25 nM. Further, in assay [1], the CC50 was below 5000 nM.
The matching figures for `Cc1c(Cc2ccc(F)c(C(=O)N3CC(=O)N4CCCCC4C3)c2)n[nH]c(=O)c1C` (centres unmarked) [Example 32, 6-{4-Fluoro-3-[(4-oxooctahydro-2H-pyrido[1,2-a]pyrazin-2-yl)carbonyl]benzyl}-4,5-dimethyl-3-oxo-2,3-dihydropyridazin-1-ium trifluoroacetate]: 5 to 25 nM and below 50 nM.
At PARP-1, `O=C(c1cc(Cc2cc(C(F)(F)F)c(=O)[nH]n2)ccc1F)N1CCN(C2CCCC2)C(=O)C1` [Example 33, 6-{3-[(4-Cyclopentyl-3-oxopiperazin-1-yl)carbonyl]-4-fluorobenzyl}-3-oxo-4-(trifluoromethyl)-2,3-dihydropyridazin-1-ium trifluoroacetate] yielded an IC50 below 5 nM. Further, the CC50 in assay [1] is 50 to 500 nM.
The compound `Cc1c(Cc2ccc(F)c(C(=O)N3CCN(C4CCCCC4)C(=O)C3C)c2)n[nH]c(=O)c1C` (centres unmarked) [Example 35, 6-{3-[(4-Cyclohexyl-2-methyl-3-oxopiperazin-1-yl)carbonyl]-4-fluorobenzyl}-4,5-dimethyl-3-oxo-2,3-dihydropyridazin-1-ium trifluoroacetate] registered an IC50 against PARP-1 of 5 to 25 nM. In assay [1], the CC50 is below 5000 nM.
The matching figures for `Cc1c(Cc2ccc(F)c(C(=O)N3CCC(=O)N(C(C)C)CC3)c2)n[nH]c(=O)c1C` [Example 36, 6-{4-Fluoro-3-[(4-isopropyl-5-oxo-1,4-diazepan-1-yl)carbonyl]benzyl}-4,5-dimethyl-3-oxo-2,3-dihydropyridazin-1-ium trifluoroacetate]: 5 to 25 nM and below 5000 nM.
For `Cc1c(Cc2ccc(F)c(C(=O)N3CCN(c4cccnc4)C(=O)C3)c2)n[nH]c(=O)c1C` [Example 38, 6-{4-Fluoro-3-[(3-oxo-4-pyridin-3-ylpiperazin-1-yl)carbonyl]benzyl}-4,5-dimethylpyridazin-3(2H)-one], in that order: below 5 nM and 50 to 500 nM.
The matching figures for `CCc1c(Cc2ccc(F)c(C(=O)N3CCN(C4CCCCC4)C(=O)C3)c2)n[nH]c(=O)c1C(F)(F)F` [Example 39, 6-{3-[(4-Cyclohexyl-3-oxopiperazin-1-yl)carbonyl]-4-fluorobenzyl}-5-ethyl-4-(trifluoromethyl)pyridazin-3(2H)-one trifluoroacetate]: below 5 nM and below 50 nM.
As to `Cc1c(Cc2ccc(F)c(C(=O)N3CCN(c4ccc(F)cc4)C(=O)C3)c2)n[nH]c(=O)c1C` [Example 40, 6-(4-Fluoro-3-{[4-(4-fluorophenyl)-3-oxopiperazin-1-yl]carbonyl}benzyl)-4,5-dimethyl-3-oxo-2,3-dihydropyridazin-1-ium trifluoroacetate], the IC50 at PARP-1 lay within 5 to 25 nM. The CC50 in assay [1] fell in the range of 50 to 500 nM.
With `Cc1c(Cc2ccc(F)c(C(=O)N3CCN(C4CCC(F)(F)CC4)C(=O)C3)c2)n[nH]c(=O)c1C` [Example 48, 6-(3-{[4-(4,4-Difluorocyclohexyl)-3-oxopiperazin-1-yl]carbonyl}-4-fluorobenzyl)-4,5-dimethyl-3-oxo-2,3-dihydropyridazin-1-ium trifluoroacetate], the IC50 at PARP-1 is 5 to 25 nM. Also, the CC50 in assay [1] lay in the range of 50 to 500 nM.
Consider `Cc1c(Cc2ccc(F)c(C(=O)N3CCN(C4CCC(F)(F)C4)C(=O)C3)c2)n[nH]c(=O)c1C` (centres unmarked) [Example 49, 6-(3-{[4-(3,3-Difluorocyclopentyl)-3-oxopiperazin-1-yl]carbonyl}-4-fluorobenzyl)-4,5-dimethyl-3-oxo-2,3-dihydropyridazin-1-ium trifluoroacetate], for which, on PARP-1, the IC50 was below 5 nM. The 50% cytotoxic concentration (CC50) in assay [1] is below 50 nM.
